{"source": "patent US20040028687A1", "about": "“Methods and compositions for the targeted delivery of therapeutic substances to specific cells and tissues” (priority 2002, published 2004)", "key": {"rNeu^+ tumor cells": {"system": "rNeu^+ tumor cells", "type": "in vivo, mice", "protocol": "FIG. 6: Effect of virosome treatment on recently implanted tumors. 2×10^5 rNeu^+ tumor cells were injected s.c. and treatment was started 3-5 days later. I.v. injections of the different virosome formulations such as Doxo-Vir, Fab′-Doxo-Vir, Fab′-Vir and free Doxo (all at a concentration of 150 μg/ml doxorubicin) were performed at the indicated time points (arrows) for a period of three weeks. Tumor size was assessed twice a week during therapy and weekly in the follow-up period. Tumor formation (defined as volume >90 mm^3) in the different groups and the follow-up of >12 weeks is shown. Statistical analysis using Mann-Whitney rank test was performed. Control groups (◯), free Doxo (▾), Doxo-Vir (♦), Fab′-Vir (●), Fab′-Doxo-Vir (▪)\nIn another preferred embodiment of the invention, conjugated virosomes are used to arrest the metastatic spread of tumors. […] The effect of Fab′ conjugated virosomes on the growth of tumor metastases is assessed as follows. […] Tumor formation is assessed by palpation followed by measurement of tumor size as described in the previous example. […]\nFor the micrometastatic stage of tumor formation, 0.2×10^6 tumor cells are injected s.c. and treatment is started 3-5 days later. […] Tumor formation is assessed by palpation followed by measurement of tumor size as described in the previous example. […]"}, "rNeu^+ (NF 9006) tumors": {"system": "rNeu^+ (NF 9006) tumors", "type": "in vivo, mice", "settings": "established rNeu+ tumors, i.v. every 3-4 days; comparison between treatments"}, "[1]": {"settings": "cited from earlier work"}}, "note": "Where two headings read alike, the source gives them in different places."}
{"smiles": "COc1cccc2c1C(=O)c1c(O)c3c(c(O)c1C2=O)C[C@@](O)(C(=O)CO)C[C@@H]3O[C@H]1C[C@H](N)[C@H](O)[C@H](C)O1", "note": "[free Doxo, doxorubicin]", "values": [{"measurement": "median time to tumor formation", "setting": "rNeu^+ tumor cells; 2×10^5 rNeu+ cells s.c., treatment from day 3-5, 9 injections over 3 weeks, tumor formation >90 mm^3", "result": 20, "unit": "days"}, {"measurement": "tumor development", "setting": "rNeu^+ tumor cells; within 4 weeks after tumor cell inoculation, all mice of the group", "result": "developed tumors"}, {"measurement": "tumor progression compared with another treatment group", "setting": "rNeu^+ (NF 9006) tumors", "result": "no significant difference in tumor progression"}, {"measurement": "tolerated dose", "setting": "[1]; SCID mice", "result": "2 to 3", "unit": "mg/kg"}, {"measurement": "tolerated dose", "setting": "[1]; normal mice", "result": 6, "unit": "mg/kg"}]}
